Reference: patent US20220160601A1, “Sunscreen Compositions” (Curie Co. Inc., priority 2020, published 2022)

Columns and labels:
[1] = UV/Vis spectral properties (Cary-50 spectrophotometer); format: physicochemical; details: for absorption spectra, regions encompassed / UVA and UVB absorption properties compared to oxybenzone: acetonitrile; for absorption spectra, regions encompassed: 5 mM (N-Boc-Imine-6 also 0.05 mM), compared to oxybenzone, FIG. 3; for UVA and UVB absorption properties compared to oxybenzone: 5 mM or 0.05 mM, FIG. 1
Method: Imine-1, Imine-2, and Imine-3 were synthesized, purified, and isolated (see above). All three compounds were separately dissolved in acetonitrile to a final concentration of 5 mM (FIG. 1) or 0.05 mM (FIG. 1, inset) and analyzed by UV/Vis (Cary-50 Spectrophotomer). The spectral properties were compared to oxybenzone in acetonitrile.
Carbamate-1, first described in U.S. Pat. No. 5,490,980A, was synthesized, purified, and isolated (see above). Carbamate-1 was dissolved in acetonitrile to a final concentration of 0.05 mM and analyzed by UV/Vis (Cary-50 Spectrophotomer). The spectral properties were compared to oxybenzone in acetonitrile at a final concentration of 0.05 mM.
Imine-4, Imine-5, and N-Boc-Imine-6 were synthesized, purified, and isolated (see above). All three compounds were separately dissolved in acetonitrile to a final concentration of 5 mM (FIG. 3) and analyzed by UV/Vis (Cary-50 Spectrophotomer). N-Boc-Imine-6 was diluted in acetonitrile to a final concentration of 0.05 mM (FIG. 3, inset) and analyzed by UV/Vis. […] Spectral properties were compared to oxybenzone in acetonitrile at the same concentration.
To understand the solution stability of the Boc-protected imines in protic solvent, N-Boc-Imine-6 was prepared in ethanol in the presence of catalytic glacial acetic acid. Briefly, to a solution of oxybenzone (0.10 g, 0.438 mmol, 1 eq) and N-Boc-1,6-hexanediamine (0.094 g, 0.43 mmol, 1 eq) in ethanol (0.3 mL) was added catalytic glacial acetic acid (1 μL). The reaction mixture was agitated at 900 rpm at 70° C. for 16 hr and monitored by LCMS. […] The reaction was then diluted in ethanol to final concentration of 0.04 mM and analyzed by UV/Vis spectroscopy.
N-Boc-Imine-8 and Imine-8 was synthesized, purified, and isolated (see above). N-Boc-Imine-8 and Imine-8 were dissolved in ethanol to a final concentration of 0.032 mM and 8 mM, respectively (FIG. 6) and analyzed by UV/Vis. (Cary-50 Spectrophotomer). Spectral properties were compared to sulisobenzone in ethanol at similar concentration.
Imine-10 was first dissolved in methyl tert-butyl ether and then diluted in ethanol to a final concentration of 5 mM and 0.04 mM (FIG. 7) and analyzed by UV/Vis. (Cary-50 Spectrophotomer). Spectral properties were compared to oxybenzone at similar concentration.

[2] = Solution stability of Boc-protected imine in protic solvent (ethanol); format: physicochemical; details: 70° C., catalytic glacial acetic acid, LCMS and UV/Vis
Method: To understand the solution stability of the Boc-protected imines in protic solvent, N-Boc-Imine-6 was prepared in ethanol in the presence of catalytic glacial acetic acid. Briefly, to a solution of oxybenzone (0.10 g, 0.438 mmol, 1 eq) and N-Boc-1,6-hexanediamine (0.094 g, 0.43 mmol, 1 eq) in ethanol (0.3 mL) was added catalytic glacial acetic acid (1 μL). The reaction mixture was agitated at 900 rpm at 70° C. for 16 hr and monitored by LCMS. Full reaction of the starting material to a single product peak was observed by LCMS indicating completion. The reaction was then diluted in ethanol to final concentration of 0.04 mM and analyzed by UV/Vis spectroscopy. […] Additionally, the Boc-protecting group remained intact throughout the reaction and UV/Vis analysis.

With `CCCCCCOC(=O)c1ccccc1/C(=N/CCCCCCN)c1cccc(N(CC)CC)c1O` [Imine-9] as the compound, how does the “shift of the absorbance spectra” value ([1]; data not shown) read?
The value was “red shift of the absorbance spectra, which extends to the visible region”.

Which “absorption spectra, regions encompassed” value [1] does the source give for `COc1ccc(/C(=N/C(CCC(N)=O)C(=O)O)c2ccccc2)c(O)c1` (stereo not drawn) [Imine-5] here?
The value was “encompassed the UVA-1, UVA-2, and UVB regions as well as the visible region of the spectrum (greater than 400 nm)”.

With `COc1ccc(/C(=N/Cc2ccccc2)c2ccccc2)c(O)c1` [Imine-1] as the compound, how does the “UVA and UVB absorption properties compared to oxybenzone” value [1] read?
Its value is “improved both UVA-1, UVA-2, and UVB absorption properties”.

Which “UVA and UVB absorption properties compared to sulisobenzone” value ([1]; ethanol, N-Boc-Imine-8 0.032 mM, Imine-8 8 mM, FIG. 6) does the source give for `COc1cc(O)c(/C(=N\CCCCCCN)c2ccccc2)cc1S(=O)(=O)O` [Imine-8] here?
Its value is “retained absorbance in the UVB region and extended absorbance into the UVA region”.

With `COc1ccc(/C(=N/CCCCCCNC(=O)OC(C)(C)C)c2ccccc2)c(O)c1` [N-Boc-Imine-6] as the compound, how does the “solution stability without reversion to the starting ketone and amine” value [2] read?
The value was “stable over 24 hours”.

And the “absorption spectra, regions encompassed” value [1]?
The value was “encompassed the UVA-1, UVA-2, and UVB regions as well as the visible region of the spectrum (greater than 400 nm)”.

What about the “absorption, regions encompassed” value ([1]; ethanol, 0.04 mM, FIG. 4) of the same compound?
The value was “encompasses the UVA and UVB regions as well as the visible region of the spectrum (greater than 400 nm)”.

For `COc1ccc(/C(=N/c2ccccc2)c2ccccc2)c(O)c1` [Imine-2], which “UVA and UVB absorption properties compared to oxybenzone” value [1] is on record?
The value was “improved both UVA-1, UVA-2, and UVB absorption properties”.

Which “UVA and UVB absorption properties compared to oxybenzone” value [1] does the source give for `COc1ccc(/C(=N/O)c2ccccc2)c(O)c1` [Imine-3] here?
The value was “loss in the UVA blocking and reduction in UVB blocking”.
